According to patent US10933056B2, “3-(1H-pyrazol-4-yl)pyridine allosteric modulators of the M4 muscarinic acetylcholine receptor” (Merck Sharp & Dohme Corp., priority 2015, dated 2021):

Biological target: T1, human M4 muscarinic acetylcholine receptor (Homo sapiens, UniProt P08173)
T1 construct: expressed in transfected cells; host or cells: CHO-K1
T1 sequence (P08173 1-479): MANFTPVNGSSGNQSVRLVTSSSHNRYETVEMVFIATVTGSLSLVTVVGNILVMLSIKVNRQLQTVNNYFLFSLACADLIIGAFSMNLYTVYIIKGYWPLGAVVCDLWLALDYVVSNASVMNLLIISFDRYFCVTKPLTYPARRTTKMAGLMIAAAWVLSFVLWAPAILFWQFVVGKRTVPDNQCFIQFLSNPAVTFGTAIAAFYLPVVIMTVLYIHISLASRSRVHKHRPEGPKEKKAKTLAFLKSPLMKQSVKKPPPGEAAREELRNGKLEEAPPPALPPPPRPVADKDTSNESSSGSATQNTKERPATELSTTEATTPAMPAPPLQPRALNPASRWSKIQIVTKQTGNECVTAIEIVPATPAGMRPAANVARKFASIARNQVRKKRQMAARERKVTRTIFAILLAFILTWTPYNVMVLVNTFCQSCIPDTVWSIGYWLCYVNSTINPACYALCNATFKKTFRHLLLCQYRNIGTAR
Assay: human FLIPR-based M4 PAM assay (calcium mobilization in CHO-K1 cells with human M4 receptor and Gαqi5)
Assay type: cell-based
Conditions: inflection point of dose response curve, acetylcholine at 20% of maximum response, FLIPR Tetra, read-out: M4 PAM IP
Method: (§1) In a typical experiment the M4 muscarinic acetylcholine receptor modulating activity of the compounds of the present invention was determined in accordance with the following experimental method. CHO-K1 cells stably transfected with human M4 receptor and chimeric G-protein Gαqi5 (Coward P, et al., Analytical Biochemistry, 270:242-248 (1999)) are thawed from liquid N2 storage, resuspended in growth medium, plated in black, clear bottom 384 well plates, and incubated 16-20 hours at 37° C., 5% CO2. On the day of assay, growth medium is removed, the cells are washed 2 times with wash buffer, and cells are incubated in dye loading buffer at 37° C., 5% CO2 for ˜1 hour. Following dye loading the cell plates are placed in a FLIPR Tetra instrument and while monitoring dye fluorescence (excitation […]), 10 uL of test substance at increasing concentrations is added, and fluorescence values are recorded for 4 min. Next, 10 uL of acetylcholine is added (final concentration calculated so as to achieve 20% of the maximum acetycholine response), and the fluorescence reading is continued for 3.5 min. In some cases, a third addition of acetylcholine (final concentration calculated to achieve 70% of the maximal acetylcholine response) is performed. The resulting dose response curves are fit to a 4 parameter logistic equation and the final result is determined as the inflection point (IP) of the curve
as §1, with “CHO-K1” for “In a typical experiment the M4 muscarinic acetylcholine receptor modulating activity of the compounds of the present invention was determined in accordance with the following experimental method. CHO-K1”, “Gαqi5” for “Gαqi5 (Coward P, et al., Analytical Biochemistry, 270:242-248 (1999))”, “performed.” for “performed. The resulting dose response curves are fit to a 4 parameter logistic equation and the final result is determined as the inflection point (IP) of the curve”

SMILES | EC50
Cc1ccc(-c2cnn(CC3CCCC3)c2)c(-c2ccc3c(c2)C(=O)N(CCc2ccccc2)C3)n1 [Example 4, 6-(3-(1-(cyclopentylmethyl)-1H-pyrazol-4-yl)-6-methylpyridin-2-yl)-2-phenethylisoindolin-1-one] | 37 nM
Cc1ccc(-c2cnn(CC3CCCC3)c2)c(-c2ccc3c(c2)C(=O)N(CC2CCCO2)C3)n1 (stereo not shown) [Example 5, 6-(3-(1-(cyclopentylmethyl)-1H-pyrazol-4-yl)-6-methylpyridin-2-yl)-2-((tetrahydrofuran-2-yl)methyl)isoindolin-1-one] | 20 nM
O=C1c2cc(-c3nccc(F)c3-c3cnn(CC4CCCC4)c3)ccc2CN1CC1CC1 [Example 7, 6-(3-(1-(cyclopentylmethyl)-1H-pyrazol-4-yl)-4-fluoropyridin-2-yl)-2-(cyclopropylmethyl)isoindolin-1-one] | 22 nM
O=C1c2cc(-c3ncccc3-c3cnn(CC4CCCC4)c3F)ccc2CN1CC1CC1 [Example 8, 6-(3-(1-(cyclopentylmethyl)-5-fluoro-1H-pyrazol-4-yl)pyridin-2-yl)-2-(cyclopropylmethyl)isoindolin-1-one] | 142 nM
Cc1ccc(-c2cnn(CC3CCCC3)c2F)c(-c2ccc3c(c2)C(=O)N(CC2CC2)C3)n1 [Example 9, 6-(3-(1-(cyclopentylmethyl)-5-fluoro-1H-pyrazol-4-yl)-6-methylpyridin-2-yl)-2-(cyclopropylmethyl)isoindolin-1-one] | 12 nM
CNC(=O)c1ccc(-c2cnn(CC3CCCC3)c2)c(-c2ccc3c(c2)C(=O)N(CC2CC2)C3)n1 [Example 12, 5-(1-(cyclopentylmethyl)-1H-pyrazol-4-yl)-6-(2-(cyclopropylmethyl)-3-oxoisoindolin-5-yl)-N-methylpicolinamide] | 348 nM
CNC(=O)c1ccc(-c2cnn(CC3CCCC3)c2)c(-c2ccc3c(c2)C(=O)N(C2CC2)C3)n1 [Example 13, 5-(1-(cyclopentylmethyl)-1H-pyrazol-4-yl)-6-(2-cyclopropyl-3-oxoisoindolin-5-yl)-N-methylpicolinamide] | 613 nM
NC(=O)c1ccc(-c2cnn(CC3CCCC3)c2)c(-c2ccc3c(c2)C(=O)N(CC2CC2)C3)n1 [Example 15, 5-(1-(cyclopentylmethyl)-1H-pyrazol-4-yl)-6-(2-(cyclopropylmethyl)-3-oxoisoindolin-5-yl)picolinamide] | 94 nM
NC(=O)c1ccc(-c2cnn(CC3CCCC3)c2)c(-c2ccc3c(c2)C(=O)N(C2CC2)C3)n1 [Example 16, 5-(1-(cyclopentylmethyl)-1H-pyrazol-4-yl)-6-(2-cyclopropyl-3-oxoisoindolin-5-yl)picolinamide] | 297 nM
N#Cc1ccc(-c2cnn(CC3CCCC3)c2)c(-c2ccc3c(c2)C(=O)N(CC2CC2)C3)n1 [Example 18, 5-(1-(cyclopentylmethyl)-1H-pyrazol-4-yl)-6-(2-(cyclopropylmethyl)-3-oxoisoindolin-5-yl)picolinonitrile] | 8 nM
N#Cc1ccc(-c2cnn(CC3CCCC3)c2)c(-c2ccc3c(c2)C(=O)N(C2CC2)C3)n1 [Example 19, 5-(1-(cyclopentylmethyl)-1H-pyrazol-4-yl)-6-(2-cyclopropyl-3-oxoisoindolin-5-yl)picolinonitrile] | 9 nM
O=C1c2cc(-c3nc(F)ccc3-c3cnn(CC4CCCC4)c3)ccc2CN1CC1CC1 [Example 21, 6-(3-(1-(cyclopentylmethyl)-1H-pyrazol-4-yl)-6-fluoropyridin-2-yl)-2-(cyclopropylmethyl)isoindolin-1-one] | 22 nM
O=C1c2cc(-c3nc(F)ccc3-c3cnn(CC4CCCC4)c3)ccc2CN1C1CC1 [Example 23, 6-(3-(1-(cyclopentylmethyl)-1H-pyrazol-4-yl)-6-fluoropyridin-2-yl)-2-cyclopropylisoindolin-1-one] | 34 nM

Second part, the compound after the results:

EC50 | SMILES
67 nM | CC1(Cn2cc(-c3cc4c(nc3-c3cnc5c(c3)C(=O)N(CC3CC3)C5)[C@H](F)CC4)cn2)CCCC1 (single isomer, unassigned) [Example 1A]
75 nM | CC1(Cn2cc(-c3cc4c(nc3-c3cnc5c(c3)C(=O)N(CC3CC3)C5)[C@@H](F)CC4)cn2)CCCC1 (single isomer, unassigned) [Example 1B]
39 nM | Cc1cc(-c2cnn(CC3(C)CCCC3)c2)c(-c2cnc3c(c2)C(=O)N(C)C3)nc1F [Example 1, 3-(6-Fluoro-5-methyl-3-(1-((1-methylcyclopentyl)methyl)-1H-pyrazol-4-yl)pyridin-2-yl)-6-methyl-6,7-dihydro-5H-pyrrolo[3,4-b]pyridin-5-one]
16 nM | CN1Cc2ccc(-c3nc(C#N)ccc3-c3cnn(CC4(C)CCCC4)c3)cc2C1=O [Example 2, 6-(2-Methyl-3-oxoisoindolin-5-yl)-5-(1-((1-methylcyclopentyl)methyl)-1H-pyrazol-4-yl)picolinonitrile]
38 nM | Cc1ccc(-c2cnn(CC3CCCC3)c2)c(-c2ccc3c(c2)C(=O)N(CC2CC2)C3)n1 [Example 3, 6-(3-(1-(cyclopentylmethyl)-1H-pyrazol-4-yl)-6-methylpyridin-2-yl)-2-(cyclopropylmethyl)isoindolin-1-one]
20 nM | Cc1ccc(-c2cnn(CC3CCCC3)c2)c(-c2ccc3c(c2)C(=O)N(C2CC2)C3)n1 [Example 6, 6-(3-(1-(cyclopentylmethyl)-1H-pyrazol-4-yl)-6-methylpyridin-2-yl)-2-cyclopropylisoindolin-1-one]
54 nM | CC1(Cn2cc(-c3cc4c(nc3-c3cnc5c(c3)C(=O)N(CC3CC3)C5)CCC4)cn2)CCCC1 [Example 10, 6-(cyclopropylmethyl)-3-(3-(1-((1-methylcyclopentyl)methyl)-1H-pyrazol-4-yl)-6,7-dihydro-5H-cyclopenta[b]pyridin-2-yl)-6,7-dihydro-5H-pyrrolo[3,4-b]pyridin-5-one]
11 nM | CN1Cc2ccc(-c3nc(C#N)ccc3-c3cnn(CC4CCCC4)c3)cc2C1=O [Example 11, 5-(1-(cyclopentylmethyl)-1H-pyrazol-4-yl)-6-(2-methyl-3-oxoisoindolin-5-yl)picolinonitrile]
687 nM | CNC(=O)c1ccc(-c2cnn(CC3CCCC3)c2)c(-c2ccc3c(c2)C(=O)N(C)C3)n1 [Example 14, 5-(1-(cyclopentylmethyl)-1H-pyrazol-4-yl)-N-methyl-6-(2-methyl-3-oxoisoindolin-5-yl)picolinamide]
278 nM | CN1Cc2ccc(-c3nc(C(N)=O)ccc3-c3cnn(CC4CCCC4)c3)cc2C1=O [Example 17, 5-(1-(cyclopentylmethyl)-1H-pyrazol-4-yl)-6-(2-methyl-3-oxoisoindolin-5-yl)picolinamide]
9 nM | N#Cc1ccc(-c2cnn(CC3CCCC3)c2)c(-c2ccc3c(c2)C(=O)NC3)n1 [Example 20, 5-(1-(cyclopentylmethyl)-1H-pyrazol-4-yl)-6-(3-oxoisoindolin-5-yl)picolinonitrile]
28 nM | CN1Cc2ccc(-c3nc(F)ccc3-c3cnn(CC4CCCC4)c3)cc2C1=O [Example 22, 6-(3-(1-(cyclopentylmethyl)-1H-pyrazol-4-yl)-6-fluoropyridin-2-yl)-2-methylisoindolin-1-one]
20 nM | CC1(Cn2cc(-c3cccnc3-c3ccc4c(c3)C(=O)NC4)cn2)CCCC1 [Example 24, 6-(3-(1-((1-methylcyclopentyl)methyl)-1H-pyrazol-4-yl)pyridin-2-yl)isoindolin-1-one]
21 nM | CN1Cc2ccc(-c3ncccc3-c3cnn(CC4(C)CCCC4)c3)cc2C1=O [Example 25, 2-methyl-6-(3-(1-((1-methylcyclopentyl)methyl)-1H-pyrazol-4-yl)pyridin-2-yl)isoindolin-1-one]
32 nM | CC1(Cn2cc(-c3cccnc3-c3ccc4c(c3)C(=O)N(C3CC3)C4)cn2)CCCC1 [Example 26, 2-cyclopropyl-6-(3-(1-((1-methylcyclopentyl)methyl)-1H-pyrazol-4-yl)pyridin-2-yl)isoindolin-1-one]
